Reference: patent US20240368122A1, “JAK2 INHIBITORS AND METHODS OF USE THEREOF” (RELAY THERAPEUTICS, INC., priority 2021, published 2024)
Where two headings read alike, the source gives them in different places.

What was measured:
[1] = system: TF1 JAK2 V617F STAT5 reporter; assay: Cellular TF1 STAT5 assay (luciferase reporter), JAK2 V617F; format: cell-based; conditions: read-out: Cell PD TF1 V617F STAT5 (IC50)
Method in brief: (§1)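 Measured in TF1 cells with mutant JAK2 V617F and STAT-responsive luciferase: 18-20 h compound exposure at 37 °C, then ONE-glo luminescence.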

[2] = target: T1, JAK2 JH2 WT (V536-D812) [W659A, W777A, F794H solubilizing mutations] (Homo sapiens, UniProt O60674, F794H/W659A/W777A); assay: Surface Plasmon Resonance (SPR) binding assay, JAK2 JH2 domain
T1 construct: **JAK2 JH2 WT (V536-D812) [W659A, W777A, F794H solubilizing mutations]; C-thrombin-avi-His6; thrombin cleavage site (C); His6 (C); purchased Biortus
Method in brief: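 Kinetics came from 1:1 fits of single-cycle runs at 20 °C: four 3-fold dilutions from 5 uM for JH1 or 500 nM for JH2, 60 s association, and 300 s or 1200 s dissociation respectively. Protein was freshly captured per compound in the presence of 10 uM stabilizer compound, with running buffer of pH 7.5 HEPES/NaCl/glycerol/DTT plus 2% DMSO.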

[3] = target: T2, JAK2 JH1 WT (T842-G1132) (Homo sapiens, UniProt O60674); assay: Surface Plasmon Resonance (SPR) binding assay, JAK2 JH1 domain
T2 construct: *JAK2 JH1 WT (T842-G1132) N-His60-avi-TEV; His6 (N); TEV cleavage site (N); purchased Biortus
Experimental: Selected compounds of the present disclosure were tested in a Surface Plasmon Resonance (SPR) Assay to measure their binding kinetics and affinity for proteins of interest.
Prepare buffer: 50 mM HEPES pH 7.5, 150 mM NaCl, 0.05% (v/v) Tween, and 10% (v/v) glycerol were combined and pH was adjusted to 7.5, then filtered. 5 mM DTT, was added, and buffer without DMSO was reserved for compound resuspension. 2% (v/v) DMSO was added for assay buffer, and separately 1% DMSO was used to make buffer for resuspending compounds.
Prepare compounds: Using a Bravo liquid handler, 99 μL of 1% (v/v) DMSO assay buffer was added to 1 μL compounds in DMSO.
Run 8K Method: Biotin CAPture (CAP) chip surface was regenerated prior to run by: Inserting CAP chip into Biacore 8K, prime machine with assay buffer with 2% (v/v) DMSO; Setting instrument temperature to 20° C.; Conditioning surface with NaOH/GdnHCl reagents from CAP chip kit (60 seconds, 10 μL/min); and Capturing oligo-Streptavidin (SA) reagent from CAP kit (600 seconds, 1 μL/min), expected capture ˜2500 RU. JAK2 JH1 or JH2 protein was immobilized by preparing a sample of 0.5 uM JH1 or 0.4 uM JH2 protein diluted in assay buffer without DMSO and supplemented with 10 uM of a selected compound of the invention as a stabilizer (370 seconds, 5 uL/min), expected capture ˜1000 RU. Remaining biotin sites on SA were blocked with 1 uM biotin (30 seconds, 20 uL/min), then equilibrated for 1800 seconds at 100 uL/min. Compounds being assayed were run in single cycle kinetics: 4 doses with a top concentration of 5 uM (JH1) or 500 nM (JH2), dilution factor of 3, at 20° C., for a contact time of 60 seconds, and a dissociation time of 300 seconds (JH1) or 1200 seconds (JH2), at a flow rate of 30 uL/min. The surface was completely regenerated after each compound is run, and JH1 or JH2 protein was immobilized fresh prior to each new compound. Data were fitted kinetically with 1:1 binding model using Biacore Insight Evaluation Software.

[4] = system: TF1 JAK2 V617F STAT3 reporter; assay: Cellular TF1 STAT3 assay (luciferase reporter), JAK2 V617F; format: cell-based; conditions: read-out: Cell PD-TF1 JAK2 V617F STAT3 (IC50)
Method in brief: as §1

[5] = Homo sapiens, TF-1, TF1 cells, JAK2 V617F

T1 sequence (O60674 536-812 W659A/W777A/F794H): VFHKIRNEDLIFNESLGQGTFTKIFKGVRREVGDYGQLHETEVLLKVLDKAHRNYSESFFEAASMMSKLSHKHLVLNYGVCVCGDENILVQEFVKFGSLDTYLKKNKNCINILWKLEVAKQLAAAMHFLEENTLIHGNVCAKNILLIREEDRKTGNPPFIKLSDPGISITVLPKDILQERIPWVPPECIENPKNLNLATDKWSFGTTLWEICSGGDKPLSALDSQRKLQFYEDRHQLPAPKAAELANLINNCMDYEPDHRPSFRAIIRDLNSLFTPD
T2 sequence (O60674 842-1132): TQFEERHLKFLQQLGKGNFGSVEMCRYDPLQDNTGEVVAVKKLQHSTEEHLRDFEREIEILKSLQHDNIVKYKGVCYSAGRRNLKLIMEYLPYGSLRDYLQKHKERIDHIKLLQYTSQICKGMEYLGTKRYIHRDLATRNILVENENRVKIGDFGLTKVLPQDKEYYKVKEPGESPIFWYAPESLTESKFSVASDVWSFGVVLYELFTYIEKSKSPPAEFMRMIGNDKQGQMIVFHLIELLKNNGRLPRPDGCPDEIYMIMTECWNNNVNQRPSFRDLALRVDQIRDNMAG

IC50 ([1]; TF1 JAK2 V617F) [nM]	Kd ([2]; SPR, JAK2 JH2 domain) [nM]	Kd ([3]; SPR, JAK2 JH1 domain) [nM]	IC50 ([4]; TF1 JAK2 V617F) [nM]	IC50 [1, 5] [nM]	Kd [2] [nM]	Kd [3] [nM]	IC50 [4, 5] [nM]	Structure (SMILES)
50 to 500	0.01 to 10	5000 to 100000	50 to 500	–	–	–	–	CNC(=O)c1nnc(NC(=O)C2CC2)cc1Nc1cccc(-c2cnc(C(=O)N(C)Cc3cc(C#N)ccn3)cn2)c1OC [Compound 37]
5000 to 100000	0.01 to 10	5000 to 100000	5000 to 100000	–	–	–	–	CNC(=O)c1nnc(NC(=O)C2CC2)cc1Nc1cccc(-c2nnc(C3CN(Cc4cccc(C)n4)C3)o2)c1OC [Compound 157]
5000 to 100000	0.01 to 10	500 to 5000	500 to 5000	–	–	–	–	CNC(=O)c1nnc(NC(=O)C2CC2)cc1Nc1cccc(-c2cnn(C3CN(Cc4ccnc(C)n4)C3)c2)c1OC [Compound 148]
500 to 5000	0.01 to 10	5000 to 100000	500 to 5000	–	–	–	–	CNC(=O)c1nnc(NC(=O)C2CC2)cc1Nc1cccc(-c2cnn(C3CN(Cc4nc(C)cs4)C3)c2)c1OC [Compound 141]
500 to 5000	0.01 to 10	5000 to 100000	500 to 5000	–	–	–	–	CNC(=O)c1nnc(NC(=O)C2CC2)cc1Nc1cc(F)cc(-c2cnn(C3CN(Cc4ccn(C)n4)C3)c2)c1OC [Compound 155]
500 to 5000	0.01 to 10	500 to 5000	500 to 5000	–	–	–	–	CNC(=O)c1nnc(NC(=O)C2CC2)cc1Nc1cccc(-c2cnn(C3CN(Cc4cnn(C)c4)C3)c2)c1OC [Compound 44]
50 to 500	0.01 to 10	5000 to 100000	50 to 500	–	–	–	–	CNC(=O)c1nnc(NC(=O)C2CC2)cc1Nc1cccc(-c2cnc(C(=O)N(C)Cc3cc(C#N)ccn3)c(F)c2)c1OC [Compound 28]
50 to 500	0.01 to 10	5000 to 100000	50 to 500	–	–	–	–	[2H]C([2H])([2H])NC(=O)c1nnc(NC(=O)C2CC2)cc1Nc1cccc(-c2ccc(C(=O)N(C)Cc3cc(C#N)ccn3)nc2)c1OC [Compound 61]
50 to 500	0.01 to 10	500 to 5000	50 to 500	–	–	–	–	CNC(=O)c1nnc(NC(=O)C2CC2)cc1Nc1cccc(-c2cnn(C3CN(Cc4cccc(F)n4)C3)c2)c1OC [Compound 142]
–	–	–	–	5000 to 100000	50 to 500	5000 to 100000	5000 to 100000	CNC(=O)c1nnc(NC(=O)C2CC2)cc1Nc1cccc(-c2cnn(C3CN(C(C)=O)C3)c2)c1OC [Compound 301]
50 to 500	0.01 to 10	5000 to 100000	50 to 500	–	–	–	–	CNC(=O)c1nnc(NC(=O)C2CC2)cc1Nc1cccc(-c2ccc(C(=O)N(C)Cc3cc(C#N)ccn3)nc2)c1OC [Compound 18]
–	–	–	–	500 to 5000	0.01 to 10	–	500 to 5000	CNC(=O)c1nnc(NC(=O)C2CC2)cc1Nc1ccc(C)c(-c2ccc(C3CN(Cc4cccc(C#N)n4)C3)nc2)c1OC [Compound 320]
50 to 500	0.01 to 10	–	50 to 500	–	–	–	–	CNC(=O)c1nnc(NC(=O)C2CC2)cc1Nc1cccc(-c2ccc(C(=O)N(C)Cc3cc(S(C)(=O)=O)ccn3)cc2)c1OC [Compound 73]
500 to 5000	0.01 to 10	–	500 to 5000	–	–	–	–	CNC(=O)c1nnc(NC(=O)C2CC2)cc1Nc1cccc(-c2cnn(C3CN(Cc4ncsc4C)C3)c2)c1OC [Compound 125]
–	–	–	–	50 to 500	0.01 to 10	–	50 to 500	CNC(=O)c1nnc(NC(=O)C2CC2)cc1Nc1cccc(-c2cnn(C3CN(Cc4cccc(COC)n4)C3)c2)c1OC [Compound 216]
–	–	–	–	5000 to 100000	0.01 to 10	–	500 to 5000	COc1c(Nc2cc(NC(=O)C3CC3)nn3cc(C)nc23)ccc(C)c1-c1ccc(C(=O)N(C)Cc2cn(C)nc2C)nc1 [Compound 262]
